Molecular target: T1, plasminogen activator inhibitor-1 (PAI-1) (Homo sapiens, UniProt P05121)
T1 construct: gene SERPINE1; recombinant human PAI-1
Assay: chromogenic uPA/S-2444 assay with recombinant PAI-1; supported by SDS-PAGE of PAI-1/uPA complex and clot lysis assay
Assay type: biochemical

T1 sequence (P05121 24-402, other chains not shown): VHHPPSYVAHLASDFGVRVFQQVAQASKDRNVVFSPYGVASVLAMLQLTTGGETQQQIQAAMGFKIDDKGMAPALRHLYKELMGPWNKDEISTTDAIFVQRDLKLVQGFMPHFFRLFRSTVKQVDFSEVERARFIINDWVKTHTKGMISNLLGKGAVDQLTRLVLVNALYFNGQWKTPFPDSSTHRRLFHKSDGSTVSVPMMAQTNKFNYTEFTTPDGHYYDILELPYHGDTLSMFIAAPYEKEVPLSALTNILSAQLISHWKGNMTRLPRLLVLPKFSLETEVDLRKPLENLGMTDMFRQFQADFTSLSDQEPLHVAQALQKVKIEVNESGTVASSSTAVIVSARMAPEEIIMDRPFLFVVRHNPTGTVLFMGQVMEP

Q: For `COc1cc2oc(=O)ccc2c(OC)c1C[C@@H](O)C(C)(C)O` (single isomer, unassigned) [Peak 4, toddalolactone], which IC50 is on record?
A: 37.3 ± 3.23 µM
